# Experimental data: the supplement of paper PMC10307832
# What was measured:
# Experiment in all cases: relative viability (nuclei count vs DMSO), 5 days (fraction); higher = more cells survive
# Carboplatin + Tozasertib = compound: C1CC(C1)(C(=O)O)C(=O)O.[NH2-].[NH2-].[Pt+2] [Carboplatin] + Cc1cc(Nc2cc(N3CCN(C)CC3)nc(Sc3ccc(NC(=O)C4CC4)cc3)n2)n[nH]1 [Tozasertib] (partner 0.1 µM)
# Outline: (§1)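 Lung cancer cell lines in 1536-well plates were dosed by pin tool the day after seeding, either with one drug alone or with a fixed anchor-drug dose plus five library-drug doses (not always all listed) in √10 steps. After 5 days, cells were fixed and their nuclei stained in one step (final 0.05% Triton X-100, 1% formaldehyde, 1 ug/ml Hoechst), then counted on 4× images. Relative viability is the nuclei count in treated wells divided by that in vehicle wells. Values are medians of duplicate plates.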
# GSK126 + Palbociclib = compound: CC[C@H](C)N1C=C(C2=C(C=C(C=C21)C3=CN=C(C=C3)N4CCNCC4)C(=O)NCC5=C(C=C(NC5=O)C)C)C [GSK126] + CC(=O)c1c(C)c2cnc(Nc3ccc(N4CCNCC4)cn3)nc2n(C2CCCC2)c1=O [Palbociclib] (partner 0.5 µM)
# Outline: as §1
# GSK126 + Foretinib = compound: CC[C@H](C)N1C=C(C2=C(C=C(C=C21)C3=CN=C(C=C3)N4CCNCC4)C(=O)NCC5=C(C=C(NC5=O)C)C)C [GSK126] + COc1cc2c(Oc3ccc(NC(=O)C4(C(=O)Nc5ccc(F)cc5)CC4)cc3F)ccnc2cc1OCCCN1CCOCC1 [Foretinib] (partner 0.25 µM)
# Outline: as §1
# GSK126 + Pemetrexed = compound: CC[C@H](C)N1C=C(C2=C(C=C(C=C21)C3=CN=C(C=C3)N4CCNCC4)C(=O)NCC5=C(C=C(NC5=O)C)C)C [GSK126] + Nc1nc2[nH]cc(CCc3ccc(C(=O)N[C@@H](CCC(=O)O)C(=O)O)cc3)c2c(=O)[nH]1 [Pemetrexed] (partner 0.2 µM)
# Outline: as §1
cell line,measurement,setting,value
UMC-11,relative viability,Carboplatin + Tozasertib; first compound 0.08 µM,0.22
same,relative viability,Carboplatin + Tozasertib; first compound 0.253 µM,0.208
same,relative viability,Carboplatin + Tozasertib; first compound 0.8 µM,0.207
same,relative viability,Carboplatin + Tozasertib; first compound 2.53 µM,0.193
same,relative viability,Carboplatin + Tozasertib; first compound 8 µM,0.212
same,relative viability,GSK126 + Palbociclib; first compound 0.08 µM,0.353
same,relative viability,GSK126 + Palbociclib; first compound 0.253 µM,0.32
same,relative viability,GSK126 + Palbociclib; first compound 0.8 µM,0.328
same,relative viability,GSK126 + Palbociclib; first compound 2.53 µM,0.405
same,relative viability,GSK126 + Palbociclib; first compound 8 µM,0.344
same,relative viability,GSK126 + Foretinib; first compound 0.08 µM,1.04
same,relative viability,GSK126 + Foretinib; first compound 0.253 µM,1.04
same,relative viability,GSK126 + Foretinib; first compound 0.8 µM,1.02
same,relative viability,GSK126 + Foretinib; first compound 2.53 µM,1.03
same,relative viability,GSK126 + Foretinib; first compound 8 µM,1.19
same,relative viability,GSK126 + Pemetrexed; first compound 0.08 µM,0.841
same,relative viability,GSK126 + Pemetrexed; first compound 0.253 µM,0.749
same,relative viability,GSK126 + Pemetrexed; first compound 0.8 µM,0.756
same,relative viability,GSK126 + Pemetrexed; first compound 2.53 µM,0.744
same,relative viability,GSK126 + Pemetrexed; first compound 8 µM,0.831
